SMILES strings stand for the structures. Several values for one entry are separate records, joined by “and”; a condition that tells them apart may be missing. Identical values can stand only once. A value given as a limit tells only on which side of the number the result lay.

The text below walks through data of patent US7105531B2, “Tricyclic protein kinase inhibitors” (WYETH, priority 1999, dated 2006).

Data set [1] has as its target T1, recombinant human MEK 1 (MAPKK) and recombinant human ERK2 (MAPK) (Homo sapiens, UniProt P28482+Q02750).
T1 construct: GST
In words: Mitogen Activated Protein Kinase (MAPK) coupled Mek-Erk test procedure. It is filed as biochemical. As for the experimental part: To evaluate inhibitors of the MAP (mitogen activated protein) kinase a two component coupled standard pharmacological test procedure, which measures phosphorylation of a serine/threonine residue in an appropriate sequence in the substrate in the presence and absence of a putative inhibitor, is used. Recombinant human MEK 1 (MAPKK) is first used to activate recombinant human ERK2 (MAPK) and the activated MAPK (ERK) is incubated with substrate (myelin basic protein peptide (MBPP) or Myc peptide) in the presence of ATP, Mg^+2 and radiolabeled ^33P ATP. The phosphorylated peptide is captured on a P 81 phosphocellulose filter (paper filter or embedded in microtiter plate) washed and counted by scintillation methods.
The peptide substrates used in the assay are MBPP, peptide substrate ([…]), or synthetic Myc substrate, ([…].5 TFA). The recombinant enzymes used are prepared as GST fusion proteins of human ERK 2 and human MEK 1. Inhibitor samples are prepared as 10× stocks in 10% DMSO and an appropriate aliquot is used to deliver either 10 ug/ml for a single point screening dose or 100 to 0.0001 uM final concentration for a dose response curve. Final DMSO concentrations are less than or equal to 1%.
The reaction is run as follows in 50 mM Tris kinase buffer, pH 7.4 in a reaction volume of 50 ul. The appropriate volume of kinase buffer and inhibitor sample is added to the tube. Appropriate dilution of enzyme is delivered to give 2–5 ug recombinant MAPK (Erk) per tube. The inhibitor is incubated with MAPK (Erk) for 30 min at 0 deg. C. Recombinant Mek (MAPKK) (0.5–2.5 ug) or fully activated Mek (0.05–0.1 units) is added to activate the Erk and incubated for 30 min at 30° C. Then substrate and γ^33P ATP are added to give a final concentration of 0.5–1 mM MBPP or 250–500 uM Myc; 0.2–0.5 uCi gamma P 33 ATP/tube; 50 μM ATP final concentration. Samples are incubated at 30° C. for 30 minutes and the reaction is stopped by adding 25 μl of ice cold 10% trichloroacetic acid (TCA). After samples are chilled on ice for 30 min. 20 μl of sample is transferred onto P 81 phosphocellulose filter. Filter papers are washed 2 times with a large volume of 1% acetic acid, then 2 times with water. The filters are briefly air dried before addition of scintillant and samples are counted in the appropriate scintillation counter set up for reading ^33P isotope. Samples include a positive control (activated enzyme plus substrate); a no enzyme control; a no substrate control; samples with different concentrations of putative inhibitor, and samples with reference inhibitors (other active compounds or non-specific inhibitors such as staurosporine or K252 B).
The raw data is captured as cpm. Sample replicates are averaged and corrected for background count. Mean cpm data is tabulated by group and % inhibition by a test compound is calculated as (corrected cpm control−corrected. cpm sample/control)×100=% inhibition).

In data set [2] the target is T2, Rat2 fibroblasts transformed with v-Src/Hu c-Src fusion gene (Homo sapiens, UniProt P12931, cells depend on it, form not given).
T2 construct: fused on or other part: The v-Src frame of Rous sarcoma virus: everything outside the catalytic domain, namely the N-terminal unique/SH3/SH2 part; Candidates are Prague C (P00526), then Schmidt-Ruppin A (P00524)
T2 sequence (P12931 whole entry, change not shown, the tested form may be a part): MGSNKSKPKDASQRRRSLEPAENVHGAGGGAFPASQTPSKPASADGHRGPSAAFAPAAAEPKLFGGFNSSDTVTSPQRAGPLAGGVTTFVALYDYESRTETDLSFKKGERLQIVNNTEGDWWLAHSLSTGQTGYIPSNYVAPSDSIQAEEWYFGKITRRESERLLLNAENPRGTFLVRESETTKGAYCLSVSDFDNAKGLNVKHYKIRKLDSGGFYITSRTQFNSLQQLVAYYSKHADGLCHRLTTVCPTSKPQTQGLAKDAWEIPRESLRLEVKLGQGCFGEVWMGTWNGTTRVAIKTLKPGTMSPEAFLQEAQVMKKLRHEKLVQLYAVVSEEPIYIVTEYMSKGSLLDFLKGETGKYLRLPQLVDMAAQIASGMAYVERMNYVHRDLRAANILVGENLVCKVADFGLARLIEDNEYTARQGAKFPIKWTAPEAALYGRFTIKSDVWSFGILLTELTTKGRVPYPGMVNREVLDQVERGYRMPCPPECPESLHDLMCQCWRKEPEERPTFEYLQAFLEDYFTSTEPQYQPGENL
The experiment in a line: Anchorage independent Src-transformed fibroblast proliferation test procedure. Format: cell-based, rat. To be noted: for Src TF prolif % Inh: @ dose 10 μM; for GI50: rat2 fibroblasts transformed with v-src/hu c-src fusion gene, read-out: Src TF prolif IC50. The source says:
Anchorage Independent Src-transformed Fibroblast Proliferation Test Procedure: Rat2 fibroblasts stably transformed with a plasmid containing CMV promotor controlled v-Src/Hu c-Src fusion gene in which the catalytic domain of human c-Src is inserted in place of the v-Src catalytic domain in the v-Src gene are used for the measurement of src dependent suspension growth.

The melting point is the temperature, or range, at which the solid turns liquid. `N#Cc1cnc2cc3ccccc3cc2c1Nc1ccc(Oc2ccccc2)cc1` [Example 3, 4-(4-Phenoxyanilino)benzo[g]quinoline-3-carbonitrile] displayed a melting point of 250 to 251 °C. The “Mek-Erk IC50” value in data set [1] came out at 0.2 µM.
`N#Cc1cnc2c(c1Nc1ccc(Cl)cc1Br)C=C1N=CN=C1C2` [Example 38, 8-(2-Bromo-4-chlorophenylamino)imidazo[4,5-g]quinoline-7-carbonitrile] registered a melting point of 244 to 246 °C. In data set [2], the “Src TF prolif % Inh” value is listed as 0%. The “Mek-Erk IC50” value in data set [1] stood at 1.3 µM.
The matching figures for `COc1cc(Nc2c(C#N)cnc3c2C=C2N=CN=C2C3)c(Br)cc1Cl` [Example 39, 8-(2-Bromo-4-chloro-5-methoxyphenylamino)imidazo[4,5-g]quinoline-7-carbonitrile]: 257 °C (dec.), 25% and 1.3 µM.
The matching figures for `COc1ccc(Cl)c(Nc2c(C#N)cnc3c2C=C2N=CN=C2C3)c1` [Example 40, 8-(2-Chloro-5-methoxy-phenylamino)imidazo[4,5-g]quinoline-7-carbonitrile]: 296 to 298 °C, 0% and 0.5 µM.
Turning to `N#Cc1cnc2c(c1Nc1ccc(Oc3ccccc3)cc1)C=C1N=CN=C1C2` [Example 44, 8-(4-Phenoxyanilino)imidazo[4,5-g]quinoline-7-carbonitrile], the melting point was more than 270 °C. For the same molecule, the “Mek-Erk IC50” value in data set [1] came to 0.03 µM.
In the case of `COc1cc(Nc2c(C#N)cnc3cc4c(cc23)ncn4CCN2CCOCC2)c(C)cc1Cl` [Example 57, 8-(4-Chloro-5-methoxy-2-methylanilino)-3-[2-(4-morpholinyl)ethyl]-3H-imidazo[4,5-g]quinoline-7-carbonitrile], the melting point fell in the range of 246 to 248 °C. Also, the “Src TF prolif % Inh” value in data set [2] came out at 0%.
The molecule `N#Cc1cnc2c(sc3ccccc32)c1Nc1ccc(Oc2ccccc2)cc1` [Example 69, 4-(4-Phenoxyphenylamino)benzo[4,5]thieno[3,2-b]pyridine-3-carbonitrile] returned a melting point of 230 to 233 °C. Moreover, the “Mek-Erk IC50” value in data set [1] stood at 3 µM.
The molecule `COc1cc(Nc2c(C#N)cnc3cc4cc(OCCCN5CCOCC5)c(OC)cc4cc23)c(Cl)cc1Cl` [Example 157, 4-(2,4-Dichloro-5-methoxyphenylamino)-7-methoxy-8-(3-morpholin-4-yl-propoxy)benzo[g]quinoline-3-carbonitrile] had a melting point of 205 to 208 °C. In addition, the GI50 in data set [2] was 0.038 µM.
Turning to `COc1cc(Nc2c(C#N)cnc3cc4cc(OCCn5ccnn5)c(OC)cc4cc23)c(Cl)cc1Cl` [Example 159, 4-(2,4-Dichloro-5-methoxyphenylamino)-7-methoxy-8-(2-[1,2,3]triazol-1-yl-ethoxy)benzo[g]quinoline-3-carbonitrile], the melting point is 245 °C (dec.). Further, in data set [2], the GI50 turned out to be 0.073 µM.
The matching figures for `COc1cc(Nc2c(C#N)cnc3nc4cc(OC)c(OC)cc4cc23)c(Cl)cc1Cl` [Example 165, 4-(2,4-Dichloro-5-methoxyanilino)-7,8-dimethoxybenzo[b][1,8]naphthyridine-3-carbonitrile]: 297 °C (dec.) and more than 10 µM.
As to `COc1cc(Nc2c(C#N)cnc3nc4cc(OCCCl)c(OC)cc4cc23)c(Cl)cc1Cl` [Example 172, 8-(2-Chloroethoxy)-4-(2,4-dichloro-5-methoxyanilino)-7-methoxybenzo[b][1,8]naphthyridine-3-carbonitrile], the melting point is 227 to 230 °C (dec.). The GI50 in data set [2] was 1.87 µM.
On to `COc1cc(Nc2c(C#N)cnc3nc4cc(OCCN5CCOCC5)c(OC)cc4cc23)c(Cl)cc1Cl` [Example 173, 4-(2,4-Dichloro-5-methoxyanilino)-7-methoxy-8-[2-(4-morpholinyl)ethoxy]benzo[b][1,8]naphthyridine-3-carbonitrile], for which the melting point was 242 to 244 °C (dec.). Also, in data set [2], the GI50 is 3.74 µM.
With `CCOc1cc2cc3ncc(C#N)c(Nc4cc(OC)c(Cl)cc4C)c3cc2cc1OCCN1CCOCC1` [Example 190, 4-(4-Chloro-5-methoxy-2-methylanilino)-8-ethoxy-7-[2-(4-morpholinyl)ethoxy]benzo[g]quinoline-3-carbonitrile], the melting point lay within 195 to 196 °C. For the same molecule, in data set [2], the GI50 stood at 0.17 µM.
The matching figures for `CCOc1cc2cc3c(Nc4cc(OC)c(Cl)cc4C)c(C#N)cnc3cc2cc1OCCN1CCOCC1` [Example 191, 4-(4-Chloro-5-methoxy-2-methylanilino)-7-ethoxy-8-[2-(4-morpholinyl)ethoxy]benzo[g]quinoline-3-carbonitrile]: 201 to 203 °C and 0.022 µM.
The matching figures for `CCOc1cc2cc3c(Nc4cc(OC)c(Cl)cc4C)c(C#N)cnc3cc2cc1OCCN(CC(N)=O)CC(N)=O` [Example 194, 2-(Carbamoylmethyl-{2-[4-(4-chloro-5-methoxy-2-methylphenylamino)-3-cyano-7-ethoxybenzo[g]quinolin-8-yloxy]-ethyl}-amino)-acetamide]: 168 to 170 °C and more than 10 µM.
`COc1cc(Nc2c(C#N)cnc3cc4cc(OC)c(OCCN5CCN(C)CC5)cc4cc23)c(Cl)cc1F` [Example 201, 4-(2-Chloro-4-fluoro-5-methoxyanilino)-8-methoxy-7-[2-(4-methyl-1-piperazinyl)ethoxy]benzo[g]quinoline-3-carbonitrile] had a melting point of 170 to 173 °C. Also, the GI50 in data set [2] stood at 0.175 µM.
As to `COc1cc(Nc2c(C#N)cnc3cc4cc(OC)c(OCCN5CCN(C)CC5)cc4cc23)c(Cl)cc1C` [Example 202, 4-(2-Chloro-5-methoxy-4-methylanilino)-8-methoxy-7-[2-(4-methyl 1-piperazinyl)ethoxy]benzo[g]quinoline-3-carbonitrile], the melting point is 218 to 235 °C and 220 to 227 °C. Besides, the GI50 in data set [2] turned out to be 0.068 µM.
`COc1cc(Nc2c(C#N)cnc3cc4cc(OC)c(OCCN5CCC(O)CC5)cc4cc23)c(Cl)cc1C` [Example 207, 4-(2-Chloro-5-methoxy-4-methylanilino)-8-methoxy-7-[2-(4-hydroxy-1-piperidinyl)ethoxy]benzo[g]quinoline-3-carbonitrile] registered a melting point of 205 to 235 °C. Besides, the GI50 in data set [2] amounted to 0.929 µM.
Take `COc1cc(Nc2c(C#N)cnc3cc4cc(OC)c(OCCN5CCOCC5)cc4cc23)c(Cl)cc1F` [Example 209, 4-(2-Chloro-4-fluoro-5-methoxyanilino)-8-methoxy-7-[2-(4-morpholinyl)ethoxy]benzo[g]quinoline-3-carbonitrile]: the melting point lay within 204 to 214 °C. In addition, the GI50 in data set [2] was found to be 0.309 µM.
For the molecule `COc1cc(Nc2c(C#N)cnc3cc4cc(OCCN5CCN(C)CC5)c(OC)cc4cc23)c(Cl)cc1F` [Example 211, 4-(2-Chloro-4-fluoro-5-methoxyanilino)-7-methoxy-8-[2-(4-methyl-1-piperazinyl)ethoxy]benzo[g]quinoline-3-carbonitrile], the melting point fell in the range of 197 to 205 °C. The GI50 in data set [2] amounted to 0.128 µM.
For `COc1cc2cc3ncc(C#N)c(Nc4ccc(F)c(Cl)c4)c3cc2cc1OCCN1CCOCC1` [Example 212, 4-(3-Chloro-4-fluoroanilino)-8-methoxy-7-[2-(4-morpholinyl)ethoxy]benzo[g]quinoline-3-carbonitrile] the same measures were 205 to 210 °C and more than 10 µM.
